Test results taken from patent US10206988B2, “Xenoantigen-displaying anti-cancer vaccines and method of making” (The University of Toledo, priority 2012, dated 2019).

How the values were obtained:
female BALB/c mice [1] = assay: Anti-Rha antibody generation with Rha-Ficoll/Alum (ELISA against Rha-BSA); assay type: in vivo; conditions: day 66 sera
Procedure: The 20 female BALB/c mice used for this study were divided into four groups A1, A2, B1, and B2, containing 5 mice each. Groups A1 and B1 served as the control groups and were not immunized. Groups A2 and B2 were injected subcutaneously (day 0) with a 100 μL subcutaneous injections Rha-Ficoll/Alum on days 14, 28, 42, and 56 (100 μg of Rha-Ficoll per mouse, each boost). The mice in each group A1, A2, B1, and B2 were bled on day 66 and the collected sera were tested for anti-Rha antibodies.
96 well plates (Immulon 4 HBX) were coated with Rha-BSA conjugate (6) (2 μg/mL) in 0.01 M PBS and incubated overnight at 4° C. The plates were washed 5 times with PBS containing 0.1% Tween-20. Blocking was achieved by incubating the plates for 1 h at room temperature with BSA in 0.01 M PBS (1 mg/mL). The plates were then washed 5 times and incubated for 1 h with serum dilutions in PBS. Unbound antibody in the serum was removed by washing and the plates were incubated for 1 h at room temperature with Horseradish Peroxidase (HRP) goat anti-mouse IgG+IgM (Jackson Immunoresearch Laboratories) diluted 5000 times in PBS/BSA. The plates were washed with TMB (3,3′,5,5′-tetramethylbenzidine). One component HRP microwell substrate (Bio FX, Owings Mills, Md.) was added and allowed to react for 10 mins. Absorbances were recorded at 620 nm and were plotted against log10 [1/serum dilution]. […]

female BALB/c mice [2] = assay: Comparison of anti-Rha antibody titers and isotypes generated against Rha-Ficoll and Rha-OVA (screening against Rha-BSA); assay type: in vivo; conditions: isotype distribution, sera screened against Rha-BSA
Procedure: 96 well plates (Immulon 4 HBX) were coated with Rha-BSA conjugate (6) (2 μg/mL) in 0.01 M PBS and incubated overnight at 4° C. The plates were washed 5 times with PBS containing 0.1% Tween-20. Blocking was achieved by incubating the plates for 1 h at room temperature with BSA in 0.01 M PBS (1 mg/mL). The plates were then washed 5 times and incubated for 1 h with serum dilutions in PBS. Unbound antibody in the serum was removed by washing and the plates were incubated for 1 h at room temperature with Horseradish Peroxidase (HRP) goat anti-mouse IgG+IgM (Jackson Immunoresearch Laboratories) diluted 5000 times in PBS/BSA. The plates were washed with TMB (3,3′,5,5′-tetramethylbenzidine). One component HRP microwell substrate (Bio FX, Owings Mills, Md.) was added and allowed to react for 10 mins. Absorbances were recorded at 620 nm and were plotted against log10 [1/serum dilution].
Two groups of five female BALB/c mice each were immunized on day 0 with Rha-Ficoll/Alum adjuvant (group A) or Rha-OVA/complete Freund's adjuvant (CFA) (group B). The mice were boosted three more times on days 14, 28, and 42 with either Rha-Ficoll/Alum (group A) or rha-OVA/incomplete Freund's adjuvant (ICF) (group B). Sera were collected separately from groups A and B after the third boost and the anti-Rha antibodies in the sera from the two groups of mice were isotyped by screening against Rha-BSA. […]

U266 cells = assay: Tumor cell staining (FACS); assay type: cell-based, human; conditions: 0.5 μg antibody, FITC goat anti-mouse IgG+IgM
Procedure: U266 cells (American Type Culture Collection, Manassas, Va.), were cultured in RPMI 1640 with 15% fetal calf serum (FCS). Cells were stained with purified mouse anti-human MUC1 antibodies (CD227, 0.5 μg), non-immune BALB/c mice serum (1/5 dilution) and group B2 mice serum (1/5 dilution). The cells were then stained with FITC-conjugated goat anti-mouse IgG+IgM (0.5 μg) and fluorescence was quantified with a BD FACS Calibur.
These cells express MUC1 on their surface as shown by binding with mouse anti-human MUC1 antibodies (CD 227).

Substance | anti-Rha antibody titers in groups A2 and B2 relative to control groups (female BALB/c mice [1]) [fold] | IgG3 share of anti-Rha antibodies (female BALB/c mice [2]) [%] | IgM share of anti-Rha antibodies (female BALB/c mice [2]) [%] | binding to MUC1 on U266 human leukemia cells (U266 cells)
2-Aminoethyl-α-L-Rhamnopyranoside-Ficoll Conjugate [Rha-Ficoll] | 25 | 48 | 25 | 
CD 227: purified mouse anti-human CD227 (anti-human MUC1) from BD-biosciences |  |  |  | binding
